Blank lines part the entries; values can stand above or below the molecule they belong to. Activity calls are given as the source filed them.
Columns and labels:
[1] = molecular target: T1, Heat shock factor protein 1 (Mus musculus, UniProt P38532); assay: inhibition of MG132-induced HSE-luciferase signal, confirmation, cell-based, NIH3T3, luminescence, dose retest (AID 2382); type: functional;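 further: NIH3T3 fibroblasts with HSF1-driven luciferase reporter stressed by proteasome inhibitor MG132; luminescence from HSF1-driven luciferase expression after 8 hours of MG132 stress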
T1 sequence (P38532 whole entry): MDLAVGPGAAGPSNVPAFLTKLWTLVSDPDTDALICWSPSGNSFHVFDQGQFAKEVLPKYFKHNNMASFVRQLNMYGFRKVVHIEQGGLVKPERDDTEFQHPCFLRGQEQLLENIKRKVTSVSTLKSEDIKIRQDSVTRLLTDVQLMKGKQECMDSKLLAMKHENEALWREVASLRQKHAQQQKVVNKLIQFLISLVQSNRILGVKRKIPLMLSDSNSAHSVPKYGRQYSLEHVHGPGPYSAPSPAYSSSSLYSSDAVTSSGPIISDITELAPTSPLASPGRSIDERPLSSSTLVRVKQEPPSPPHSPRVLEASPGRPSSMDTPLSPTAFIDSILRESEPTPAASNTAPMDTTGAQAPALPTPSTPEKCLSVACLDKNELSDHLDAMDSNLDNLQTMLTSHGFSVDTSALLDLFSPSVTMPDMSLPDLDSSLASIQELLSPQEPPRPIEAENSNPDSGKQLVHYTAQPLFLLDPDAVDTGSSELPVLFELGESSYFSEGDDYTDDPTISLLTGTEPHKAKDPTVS

[2] = molecular target: Serine/threonine-protein kinase TBK1 (Homo sapiens, UniProt Q9UHD2); assay: Navigating the Kinome. Panel member name: TBK1; type: functional
[3] = molecular target: Calcium/calmodulin-dependent protein kinase type II subunit gamma (Homo sapiens, UniProt Q13555); type: functional
Calcium/calmodulin-dependent protein kinase type II subunit gamma, sequence (Q13555 whole entry): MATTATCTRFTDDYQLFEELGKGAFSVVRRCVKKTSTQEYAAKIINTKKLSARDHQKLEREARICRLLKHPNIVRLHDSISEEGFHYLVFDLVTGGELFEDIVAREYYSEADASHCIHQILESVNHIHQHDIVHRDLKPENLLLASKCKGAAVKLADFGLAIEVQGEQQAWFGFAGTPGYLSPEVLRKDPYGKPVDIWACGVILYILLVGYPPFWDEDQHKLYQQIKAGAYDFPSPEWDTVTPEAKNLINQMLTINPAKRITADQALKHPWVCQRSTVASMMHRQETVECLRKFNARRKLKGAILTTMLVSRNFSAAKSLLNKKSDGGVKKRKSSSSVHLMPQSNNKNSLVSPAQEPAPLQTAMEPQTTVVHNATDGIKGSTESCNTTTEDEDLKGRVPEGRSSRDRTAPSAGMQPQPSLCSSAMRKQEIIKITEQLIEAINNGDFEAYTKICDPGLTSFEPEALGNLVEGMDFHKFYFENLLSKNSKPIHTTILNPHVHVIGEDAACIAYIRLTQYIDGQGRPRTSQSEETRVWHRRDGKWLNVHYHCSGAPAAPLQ

[4] = molecular target: Serine/threonine-protein kinase D3 (Homo sapiens, UniProt O94806); type: functional;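 further: determined within a kinase panel screen, with PRKCN as the panel member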
[5] = molecular target: MAP kinase-activated protein kinase 5 (Homo sapiens, UniProt Q8IW41); type: functional;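 further: measured as one member of a kinome panel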
MAP kinase-activated protein kinase 5, sequence (Q8IW41 whole entry): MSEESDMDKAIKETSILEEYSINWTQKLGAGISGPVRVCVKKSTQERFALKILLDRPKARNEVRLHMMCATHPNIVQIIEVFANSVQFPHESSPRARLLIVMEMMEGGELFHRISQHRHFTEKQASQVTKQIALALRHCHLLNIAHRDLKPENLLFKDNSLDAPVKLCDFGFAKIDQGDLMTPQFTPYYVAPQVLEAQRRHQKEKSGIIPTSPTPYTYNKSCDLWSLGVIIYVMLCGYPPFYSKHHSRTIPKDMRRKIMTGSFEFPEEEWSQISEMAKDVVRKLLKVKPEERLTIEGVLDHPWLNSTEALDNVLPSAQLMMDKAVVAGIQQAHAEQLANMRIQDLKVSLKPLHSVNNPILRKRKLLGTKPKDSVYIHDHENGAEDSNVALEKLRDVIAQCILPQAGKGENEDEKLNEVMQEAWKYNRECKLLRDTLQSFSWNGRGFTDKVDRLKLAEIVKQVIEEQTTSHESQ

[6] = molecular target: Serine/threonine-protein kinase PAK 4 (Homo sapiens, UniProt O96013); type: functional;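 further: value obtained within a kinome profiling panel in which PAK4 was one of the panel members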
Serine/threonine-protein kinase PAK 4, sequence (O96013 whole entry): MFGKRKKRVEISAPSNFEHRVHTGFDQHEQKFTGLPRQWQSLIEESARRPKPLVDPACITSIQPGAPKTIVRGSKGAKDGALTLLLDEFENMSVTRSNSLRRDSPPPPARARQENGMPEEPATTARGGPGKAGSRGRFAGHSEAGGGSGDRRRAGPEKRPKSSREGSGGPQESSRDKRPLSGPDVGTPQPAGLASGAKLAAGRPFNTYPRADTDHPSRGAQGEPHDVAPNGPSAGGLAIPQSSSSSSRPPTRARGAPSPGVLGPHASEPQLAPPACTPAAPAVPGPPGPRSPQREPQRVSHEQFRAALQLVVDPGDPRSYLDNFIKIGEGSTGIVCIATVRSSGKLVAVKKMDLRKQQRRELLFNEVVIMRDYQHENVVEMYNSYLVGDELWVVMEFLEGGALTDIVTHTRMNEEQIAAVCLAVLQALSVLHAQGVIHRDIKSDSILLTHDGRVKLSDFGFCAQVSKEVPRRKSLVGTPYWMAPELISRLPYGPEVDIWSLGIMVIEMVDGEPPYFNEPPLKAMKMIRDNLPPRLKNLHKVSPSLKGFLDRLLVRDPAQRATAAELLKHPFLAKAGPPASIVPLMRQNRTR

[7] = molecular target: Tyrosine-protein kinase ITK/TSK (Homo sapiens, UniProt Q08881); type: functional;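 further: affinity for ITK measured as one member of a broad kinase panel profiling binding across the kinome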
Insulin receptor = Insulin receptor (Homo sapiens, UniProt P06213); type: functional;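 further: insulin receptor kinase tested as one member of a kinome-wide kinase panel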
Insulin receptor, sequence (P06213 28-758 limits assumed): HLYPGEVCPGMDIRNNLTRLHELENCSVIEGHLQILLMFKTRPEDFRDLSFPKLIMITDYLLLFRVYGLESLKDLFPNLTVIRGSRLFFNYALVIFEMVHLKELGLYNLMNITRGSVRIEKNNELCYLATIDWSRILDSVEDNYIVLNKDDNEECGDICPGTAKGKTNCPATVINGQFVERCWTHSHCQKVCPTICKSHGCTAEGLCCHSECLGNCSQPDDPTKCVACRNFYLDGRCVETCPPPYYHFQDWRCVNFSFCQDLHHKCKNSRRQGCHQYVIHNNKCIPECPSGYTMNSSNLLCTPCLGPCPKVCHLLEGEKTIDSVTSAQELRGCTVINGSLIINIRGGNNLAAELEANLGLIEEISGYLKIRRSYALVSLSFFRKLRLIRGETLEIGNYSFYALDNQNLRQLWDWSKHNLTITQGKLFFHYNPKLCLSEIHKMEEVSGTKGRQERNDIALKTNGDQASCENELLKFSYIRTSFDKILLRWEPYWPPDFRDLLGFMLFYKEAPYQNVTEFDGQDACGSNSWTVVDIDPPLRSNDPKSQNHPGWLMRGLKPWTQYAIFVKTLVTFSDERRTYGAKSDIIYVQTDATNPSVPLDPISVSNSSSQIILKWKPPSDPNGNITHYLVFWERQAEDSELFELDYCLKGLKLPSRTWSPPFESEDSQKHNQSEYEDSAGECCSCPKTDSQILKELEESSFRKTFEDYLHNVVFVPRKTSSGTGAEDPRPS
Insulin receptor, sequence (P06213 763-1382 limits assumed): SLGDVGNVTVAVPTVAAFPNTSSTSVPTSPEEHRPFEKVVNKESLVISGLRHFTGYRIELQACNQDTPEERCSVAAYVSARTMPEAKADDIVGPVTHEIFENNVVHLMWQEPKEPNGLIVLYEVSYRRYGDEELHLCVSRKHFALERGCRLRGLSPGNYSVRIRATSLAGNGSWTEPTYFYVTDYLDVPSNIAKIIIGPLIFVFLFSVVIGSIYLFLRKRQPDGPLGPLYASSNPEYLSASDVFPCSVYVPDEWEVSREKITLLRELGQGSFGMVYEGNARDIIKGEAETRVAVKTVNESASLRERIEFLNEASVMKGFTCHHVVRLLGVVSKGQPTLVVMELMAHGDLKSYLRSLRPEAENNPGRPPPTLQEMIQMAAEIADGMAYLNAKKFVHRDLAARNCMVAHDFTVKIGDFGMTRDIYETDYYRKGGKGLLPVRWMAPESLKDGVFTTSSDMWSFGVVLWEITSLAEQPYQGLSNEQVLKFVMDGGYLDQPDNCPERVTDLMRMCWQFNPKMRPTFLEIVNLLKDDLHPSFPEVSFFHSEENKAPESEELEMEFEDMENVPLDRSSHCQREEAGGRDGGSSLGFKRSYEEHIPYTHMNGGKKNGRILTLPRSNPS

[8] = molecular target: Mitogen-activated protein kinase 13 (Homo sapiens, UniProt O15264); type: functional
Mitogen-activated protein kinase 13, sequence (O15264 whole entry): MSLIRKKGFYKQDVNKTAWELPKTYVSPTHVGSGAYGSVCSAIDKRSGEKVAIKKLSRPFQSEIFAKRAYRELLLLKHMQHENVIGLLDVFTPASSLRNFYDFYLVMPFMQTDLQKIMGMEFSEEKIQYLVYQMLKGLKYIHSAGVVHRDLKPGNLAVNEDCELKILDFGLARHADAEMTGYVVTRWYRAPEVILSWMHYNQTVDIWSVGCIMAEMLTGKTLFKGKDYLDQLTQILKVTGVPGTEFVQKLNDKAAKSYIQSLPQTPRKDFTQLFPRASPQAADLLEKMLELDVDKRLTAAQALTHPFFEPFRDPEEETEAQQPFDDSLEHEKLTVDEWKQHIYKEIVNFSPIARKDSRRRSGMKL

Ephrin type-A receptor 2 = Ephrin type-A receptor 2 (Homo sapiens, UniProt P29317); type: functional;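 further: EPHA2 tested as one member of a kinome-wide kinase panel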
[9] = molecular target: Vascular endothelial growth factor receptor 1 (Homo sapiens, UniProt P17948); type: functional;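 further: measured within a kinome-wide profiling panel, FLT1 as the panel member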
Vascular endothelial growth factor receptor 1, sequence (P17948 whole entry): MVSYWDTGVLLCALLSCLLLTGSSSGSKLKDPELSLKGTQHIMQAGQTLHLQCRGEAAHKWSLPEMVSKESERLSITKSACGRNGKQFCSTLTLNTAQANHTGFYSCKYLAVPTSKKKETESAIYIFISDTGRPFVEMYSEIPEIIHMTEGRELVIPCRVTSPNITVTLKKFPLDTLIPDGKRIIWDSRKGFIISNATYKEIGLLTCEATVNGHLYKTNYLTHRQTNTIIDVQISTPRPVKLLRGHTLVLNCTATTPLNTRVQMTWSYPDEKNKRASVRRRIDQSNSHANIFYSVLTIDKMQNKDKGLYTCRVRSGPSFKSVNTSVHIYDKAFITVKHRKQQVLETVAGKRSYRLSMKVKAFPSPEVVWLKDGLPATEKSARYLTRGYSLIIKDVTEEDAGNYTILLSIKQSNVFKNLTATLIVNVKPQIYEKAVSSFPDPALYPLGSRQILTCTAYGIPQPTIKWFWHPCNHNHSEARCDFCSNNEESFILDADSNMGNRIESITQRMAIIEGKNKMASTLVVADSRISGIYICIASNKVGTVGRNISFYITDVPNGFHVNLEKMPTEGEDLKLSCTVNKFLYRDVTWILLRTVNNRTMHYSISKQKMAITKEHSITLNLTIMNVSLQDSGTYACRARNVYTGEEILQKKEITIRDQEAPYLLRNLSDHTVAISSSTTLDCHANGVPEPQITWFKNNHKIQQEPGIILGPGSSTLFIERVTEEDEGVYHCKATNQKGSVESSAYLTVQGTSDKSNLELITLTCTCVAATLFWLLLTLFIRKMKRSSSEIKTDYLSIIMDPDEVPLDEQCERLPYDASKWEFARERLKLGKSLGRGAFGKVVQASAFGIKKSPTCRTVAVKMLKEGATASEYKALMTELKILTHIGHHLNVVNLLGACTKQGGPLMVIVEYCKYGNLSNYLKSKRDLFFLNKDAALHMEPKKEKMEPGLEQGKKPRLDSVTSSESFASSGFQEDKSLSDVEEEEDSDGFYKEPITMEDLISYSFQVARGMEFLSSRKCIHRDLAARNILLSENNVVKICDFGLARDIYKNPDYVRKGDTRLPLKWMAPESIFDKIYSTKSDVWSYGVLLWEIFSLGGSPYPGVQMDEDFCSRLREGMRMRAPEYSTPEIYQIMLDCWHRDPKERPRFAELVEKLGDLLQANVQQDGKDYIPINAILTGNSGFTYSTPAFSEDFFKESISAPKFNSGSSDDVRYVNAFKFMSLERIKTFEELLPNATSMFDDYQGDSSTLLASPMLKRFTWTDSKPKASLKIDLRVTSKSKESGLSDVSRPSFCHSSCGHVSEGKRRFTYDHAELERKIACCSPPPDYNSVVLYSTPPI

[10] = molecular target: STE20-like serine/threonine-protein kinase (Homo sapiens, UniProt Q9H2G2); type: functional
[11] = molecular target: Mitogen-activated protein kinase kinase kinase kinase 4 (Homo sapiens, UniProt O95819); type: functional
[12] = molecular target: Mitogen-activated protein kinase 14 (Homo sapiens, UniProt Q16539); type: functional;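 further: part of a kinome-wide panel, MAPK14 entry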
Mitogen-activated protein kinase 14, sequence (Q16539 whole entry): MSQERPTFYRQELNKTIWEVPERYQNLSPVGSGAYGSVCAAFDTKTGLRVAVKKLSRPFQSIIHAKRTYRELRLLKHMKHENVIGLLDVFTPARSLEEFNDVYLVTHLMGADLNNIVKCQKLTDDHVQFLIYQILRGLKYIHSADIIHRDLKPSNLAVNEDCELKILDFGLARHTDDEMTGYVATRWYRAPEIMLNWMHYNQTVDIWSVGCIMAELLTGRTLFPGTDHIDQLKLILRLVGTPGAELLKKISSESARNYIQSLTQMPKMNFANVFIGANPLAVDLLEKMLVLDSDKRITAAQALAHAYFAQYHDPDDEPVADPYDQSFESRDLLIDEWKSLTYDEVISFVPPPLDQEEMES

[13] = molecular target: T2, Microphthalmia-associated transcription factor (Homo sapiens, UniProt O75030); assay: TRPM1 promoter luciferase signal decrease, dose response, MITF inhibitor project, cell-based, SK-MEL-5, cherry-picked, set 3 (AID 493073); type: functional
T2 sequence (O75030 whole entry): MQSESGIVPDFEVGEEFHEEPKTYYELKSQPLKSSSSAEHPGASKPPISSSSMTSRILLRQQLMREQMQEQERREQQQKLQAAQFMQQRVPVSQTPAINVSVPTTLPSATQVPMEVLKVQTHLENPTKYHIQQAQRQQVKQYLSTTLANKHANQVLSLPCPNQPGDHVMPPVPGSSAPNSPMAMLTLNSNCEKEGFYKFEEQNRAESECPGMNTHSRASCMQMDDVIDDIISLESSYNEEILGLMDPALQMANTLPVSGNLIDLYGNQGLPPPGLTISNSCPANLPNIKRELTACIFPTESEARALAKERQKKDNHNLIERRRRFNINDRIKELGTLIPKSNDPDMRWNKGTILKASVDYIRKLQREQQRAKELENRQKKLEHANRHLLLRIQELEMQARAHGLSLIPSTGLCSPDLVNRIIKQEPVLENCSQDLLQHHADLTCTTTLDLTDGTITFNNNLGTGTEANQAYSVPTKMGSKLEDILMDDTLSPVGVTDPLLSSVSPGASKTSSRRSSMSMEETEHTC

[14] = molecular target: T3, Mannose-6-phosphate isomerase (Homo sapiens, UniProt P34949); assay: human PMI inhibitors, high substrate, primary screen, biochemical, fluorescence intensity, high mannose 6-phosphate (AID 1220)
T3 sequence (P34949 whole entry): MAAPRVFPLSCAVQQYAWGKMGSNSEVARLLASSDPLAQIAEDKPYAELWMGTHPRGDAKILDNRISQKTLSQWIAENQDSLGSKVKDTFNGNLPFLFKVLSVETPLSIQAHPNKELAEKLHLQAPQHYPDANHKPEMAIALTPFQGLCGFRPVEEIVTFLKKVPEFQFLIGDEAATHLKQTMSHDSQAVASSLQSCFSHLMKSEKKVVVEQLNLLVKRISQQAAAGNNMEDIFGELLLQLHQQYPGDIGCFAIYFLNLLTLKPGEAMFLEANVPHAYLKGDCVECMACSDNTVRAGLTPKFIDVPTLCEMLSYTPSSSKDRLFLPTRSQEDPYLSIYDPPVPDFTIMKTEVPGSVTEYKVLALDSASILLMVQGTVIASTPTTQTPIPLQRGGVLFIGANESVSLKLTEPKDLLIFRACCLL

Compound: NS(=O)(=O)c1ccc(NC2=CC(=O)C(=O)c3ccccc32)cc1
EC50 [1]: > 195000 nM (not active)

Ki [2]: > 3160 nM (inactive) | Ki [3]: 501 nM (active) | Ki [4]: > 2000 nM (inactive) | Ki [5]: > 1580 nM (inactive) | Ki [6]: > 2000 nM (inactive) | Ki [7]: 1260 nM (active) | Ki (Insulin receptor): 3160 nM (active) | Ki [8]: 1260 nM (active) | Ki (Ephrin type-A receptor 2): > 3160 nM (inactive) | Ki [9]: 398 nM (active) | Ki [10]: 6310 nM (active) | Ki [11]: 126 nM (active) | Ki [12]: > 3980 nM (inactive)
Compound: Clc1cc(-c2c[nH]c3ncccc23)nc(NC2CCCCC2)n1

Compound: CCC(=O)NC(c1ccccc1OC)c1ccc2cccnc2c1O (stereo unspecified)
AC50 [13]: 6700 nM (active)

Compound: CC(C)N(C(=O)Nc1ccc2nsnc2c1)C(C)C
IC50 [14]: > 50000 nM (not active)
